Assay results as given in patent US10065990B2, “Cyclic peptide compound, and preparation method, pharmaceutical composition and use thereof” (HANGZHOU GUANYU BIO-MEDICAL CO., LTD, priority 2013, dated 2018).
Like-named read-outs stand apart in the source and are kept apart here.

Columns and labels:
HDAC1 = HDAC1 (Homo sapiens, UniProt Q13547); assay: HDAC biochemical activity measurement (fluorescent substrate deacetylation);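 note: fluorogenic acetyl-lysine substrate (20 µM) deacetylated by HDAC1, then developer releases fluorophore read at 360 nm excitation and 460 nm emission, inhibitor incubated 30 min at 37 °C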
Chain of HDAC1 (Q13547 whole entry, species assumed): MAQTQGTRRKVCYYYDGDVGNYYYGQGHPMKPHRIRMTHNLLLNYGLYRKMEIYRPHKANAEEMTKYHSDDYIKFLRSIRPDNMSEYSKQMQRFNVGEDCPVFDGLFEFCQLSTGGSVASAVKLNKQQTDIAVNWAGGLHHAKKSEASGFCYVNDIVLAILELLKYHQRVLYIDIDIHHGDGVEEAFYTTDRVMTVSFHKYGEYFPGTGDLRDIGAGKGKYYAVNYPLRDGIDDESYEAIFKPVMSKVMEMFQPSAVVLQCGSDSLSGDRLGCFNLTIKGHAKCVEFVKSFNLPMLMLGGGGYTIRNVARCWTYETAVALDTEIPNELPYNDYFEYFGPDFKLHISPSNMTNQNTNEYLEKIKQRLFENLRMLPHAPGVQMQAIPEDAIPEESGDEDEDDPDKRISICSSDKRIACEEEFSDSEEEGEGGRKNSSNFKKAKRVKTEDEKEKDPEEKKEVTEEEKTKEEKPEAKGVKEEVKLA

HDAC8 = molecular target: T1, HDAC8 (Homo sapiens, UniProt Q9BY41); assay: as above; conditions: 37° C. 30 minutes
T1 sequence (Q9BY41 1-377): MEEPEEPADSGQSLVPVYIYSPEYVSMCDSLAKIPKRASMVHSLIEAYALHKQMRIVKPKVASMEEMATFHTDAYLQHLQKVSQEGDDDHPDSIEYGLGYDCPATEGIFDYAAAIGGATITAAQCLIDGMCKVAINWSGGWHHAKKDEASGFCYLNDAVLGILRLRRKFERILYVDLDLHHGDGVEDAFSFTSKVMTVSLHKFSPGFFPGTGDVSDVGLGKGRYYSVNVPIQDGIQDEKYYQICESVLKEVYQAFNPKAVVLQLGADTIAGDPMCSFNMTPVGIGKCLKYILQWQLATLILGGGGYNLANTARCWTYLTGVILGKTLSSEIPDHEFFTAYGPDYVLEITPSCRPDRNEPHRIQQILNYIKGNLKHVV

HDAC11 = molecular target: T2, HDAC11 (Homo sapiens, UniProt Q96DB2); assay: as above;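 note: HDAC11 enzyme acting on an acetyl-lysine fluorogenic substrate, then a developer frees the fluorophore, read at excitation 360 nm and emission 460 nm, IC50 over a compound dilution series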
T2 sequence (Q96DB2 1-347): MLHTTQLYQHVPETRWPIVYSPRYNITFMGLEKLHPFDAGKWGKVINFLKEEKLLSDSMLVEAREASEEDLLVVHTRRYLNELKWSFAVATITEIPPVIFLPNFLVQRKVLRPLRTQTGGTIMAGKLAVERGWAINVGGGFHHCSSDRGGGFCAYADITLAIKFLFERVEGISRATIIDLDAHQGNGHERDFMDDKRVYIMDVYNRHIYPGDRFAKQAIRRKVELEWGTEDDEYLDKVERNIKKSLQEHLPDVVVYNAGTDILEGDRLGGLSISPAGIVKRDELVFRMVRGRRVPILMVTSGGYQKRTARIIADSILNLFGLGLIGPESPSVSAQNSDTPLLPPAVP

[1] = test system: A549 (human lung cancer cells); assay: MTT cancer cell growth inhibition; assay type: cell-based; conditions: Homo sapiens, A549, 72 h, MTT, 72 hours incubation, read-out: GI50 A54
Procedure, shortened: (§1)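 72 h exposure, final drug 10^−5–10^−10 M, triplicate wells; 1500 cells/well plated the day before; medium DMEM or 1640 + 10% FBS; 37° C./5% CO2. MTT (5 mg/ml stock) 4 h, DMSO solubilisation, A570 → % viability → GI50.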

[2] = test system: Hela (human cervical cancer cells); assay: MTT cancer cell growth inhibition; assay type: cell-based; conditions: Homo sapiens, HeLa, 72 h, MTT
Procedure, shortened: as §1

[3] = test system: U937 (human leukemia cells); assay: MTT cancer cell growth inhibition; assay type: cell-based; conditions: Homo sapiens, U-937, 72 h, MTT
Procedure, shortened: as §1

[4] = test system: MOLT-4 (human acute lymphoblastic leukemia cells); assay: MTT cancer cell growth inhibition; assay type: cell-based; conditions: Homo sapiens, MOLT-4, 72 h, MTT, 72 hours incubation, read-out: GI50 Mol
Procedure, shortened: as §1

[5] = test system: SGC-7901 (human gastric cancer cells); assay: MTT cancer cell growth inhibition; assay type: cell-based; conditions: Homo sapiens, SGC-7901, 72 h, MTT, 72 hours incubation, SGC-7901 cells; read-out: GI50 SGC-7901
Procedure, shortened: as §1

[6] = test system: HCC827 (human non-small cell lung cancer cells); assay: MTT cancer cell growth inhibition; assay type: cell-based; conditions: Homo sapiens, HCC827, 72 h, MTT, 72 hours incubation, HCC827 cells; read-out: GI50 HCC827
Procedure, shortened: as §1

[7] = test system: N-87 (human gastric cancer cells); assay: MTT cancer cell growth inhibition; assay type: cell-based; conditions: Homo sapiens, 72 h, MTT, 72 hours incubation, N-87 cells; read-out: GI50 N-87
Procedure, shortened: as §1

[8] = test system: PANC-1 (Pac-1, human pancreatic cancer cells); assay: MTT cancer cell growth inhibition; assay type: cell-based; conditions: MTT
Procedure, shortened: as §1

[9] = test system: MCF-7 (human breast cancer cells); assay: MTT cancer cell growth inhibition; assay type: cell-based; conditions: Homo sapiens, MCF7, 72 h
Procedure, shortened: as §1

[10] = test system: DU145 (human prostate cancer cells); assay: MTT cancer cell growth inhibition; assay type: cell-based; conditions: Homo sapiens, DU-145, 72 h, MTT
Procedure, shortened: as §1

[11] = test system: BGC-823 (human gastric cancer cells); assay: MTT cancer cell growth inhibition; assay type: cell-based; conditions: Homo sapiens, BGC-823, 72 h, MTT
Procedure, shortened: as §1

[12] = test system: Bel-7402 (human hepatoma cells); assay: MTT cancer cell growth inhibition; assay type: cell-based; conditions: Homo sapiens, Bel-7402, 72 h, MTT, 72 hours incubation, Bel-7402 cells; read-out: GI50 Bel-7402
Procedure, shortened: as §1

[13] = test system: Huh-7 (human hepatoma cells); assay: MTT cancer cell growth inhibition; assay type: cell-based; conditions: Homo sapiens, Huh-7, 72 h, MTT, 72 hours incubation, Huh-7 cells; read-out: GI50 Huh-7
Procedure, shortened: as §1

[14] = test system: HT1080 (human fibrosarcoma cells); assay: MTT cancer cell growth inhibition; assay type: cell-based; conditions: Homo sapiens, HT-1080, 72 h, MTT, 72 hours incubation, read-out: GI50 HT1
Procedure, shortened: as §1

[15] = test system: MDA-MB-231 (breast cancer cells); assay: MTT cancer cell growth inhibition; assay type: cell-based; conditions: Homo sapiens, MDA-MB-231, 72 h, read-out: GI50 MDA-MB-231, MTT, 72 hours incubation, MDA-MB-231 cells
Procedure, shortened: as §1

[16] = HDAC1, 37° C. 30 minutes, read-out: IC50 HDAC1
[17] = Hela cells, 72 hours incubation, read-out: GI50 Hela
[18] = U937 cells, 72 hours incubation, read-out: GI50 U93
[19] = Homo sapiens, PANC-1, 72 h, PANC-1 cells, 72 hours incubation, read-out: GI50 PAN
[20] = MCF-7 cells, 72 hours incubation, read-out: GI50 MCF
[21] = DU145 cells, 72 hours incubation, read-out: GI50 Du1
[22] = BGC-823 cells, 72 hours incubation, read-out: GI50 BG
[23] = Table 3, read-out: IC50 HDAC1, D (non-substituent)
[24] = read-out: IC50 HDAC11, HDAC11, 37° C. 30 minutes
[25] = 72 hours incubation, read-out: GI50 Hela
[26] = 72 hours incubation, read-out: GI50 U93
[27] = Homo sapiens, PANC-1, 72 h, 72 hours incubation, read-out: GI50 PAN
[28] = 72 hours incubation, read-out: GI50 MCF
[29] = 72 hours incubation, read-out: GI50 Du1
[30] = 72 hours incubation, read-out: GI50 BG

IC50 (HDAC1; [16]) [nM] | IC50 (HDAC8) [nM] | IC50 (HDAC11) [nM] | GI50 ([1]; A549 cells) [nM] | GI50 [2, 17] [nM] | GI50 [5] [nM] | GI50 [6] [nM] | GI50 [7] [nM] | GI50 [12] [nM] | GI50 [13] [nM] | GI50 [15] [nM] | GI50 [1] [nM] | GI50 [2, 25] [nM] | GI50 [3, 26] [nM] | GI50 [4] [nM] | GI50 [8, 27] [nM] | GI50 [9, 28] [nM] | GI50 [10, 29] [nM] | GI50 [11, 30] [nM] | GI50 [14] [nM] | Structure (SMILES) | other results
43 | 49 | 93 | 40 | 430 | 73 | 18 | 23 | 35 | 33 | 43 | – | – | – | – | – | – | – | – | – | C/C=C1\NC(=O)c2cc(SC)cc(n2)CNC(=O)C[C@@H](/C=C/CCSC(C)=O)OC(=O)[C@H](CCCCN)NC1=O [Compound 193] | GI50 [3, 18]: 50 nM; GI50 ([4]; MOLT-4 cells): 40 nM; GI50 [8, 19]: 80 nM; GI50 [9, 20]: 70 nM; GI50 [10, 21]: 30 nM; GI50 [11, 22]: 30 nM; GI50 ([14]; HT1080 cells): 10 nM
176 | 81 | – | – | – | 53 | 43 | 43 | 92 | 61 | 79 | 1930 | 11000 | 20100 | 920 | 23300 | 22000 | 5220 | 19700 | 970 | C/C=C1\NC(=O)c2cccc(n2)CNC(=O)C[C@@H](/C=C/CCSC(C)=O)OC(=O)[C@H](Cc2cccc3ccccc23)NC1=O [Compound 17] | IC50 (HDAC1; [23]): 176 nM; IC50 (HDAC11; [24]): 97 nM
51 | 29 | 83 | – | – | 18 | 78 | 31 | 18 | 58 | 41 | 70 | 40 | 70 | 100 | 60 | 60 | 60 | 60 | 100 | C/C=C1\NC(=O)c2cccc(n2)CNC(=O)C[C@@H](/C=C/CCS)OC(=O)[C@@H](C)NC1=O [Compound 145] | –
72 | 15 | 92 | 40 | 20 | 62 | 29 | 55 | 46 | 61 | 35 | – | – | – | – | – | – | – | – | – | C/C=C1\NC(=O)c2cc(SC)cc(n2)CNC(=O)C[C@@H](/C=C/CCSC=O)OC(=O)[C@H](C(C)C)NC1=O [Compound 169] | GI50 [3, 18]: 20 nM; GI50 ([4]; MOLT-4 cells): 40 nM; GI50 [8, 19]: 40 nM; GI50 [9, 20]: 70 nM; GI50 [10, 21]: 70 nM; GI50 [11, 22]: 60 nM; GI50 ([14]; HT1080 cells): 60 nM
73 | 43 | 97 | – | – | 35 | 45 | 23 | 35 | 65 | 56 | 30 | 40 | 30 | 80 | – | 50 | 50 | – | 80 | C/C=C1\NC(=O)c2cccc(n2)CCNC(=O)C[C@@H](/C=C/CCS)OC(=O)[C@H](C(C)C)NC1=O [Compound 146] | –
41 | 30 | – | – | – | 53 | 179 | 18 | 29 | 33 | 95 | 10 | 20 | – | – | 20 | 30 | – | 60 | 10 | C/C=C1\NC(=O)c2cccc(n2)CNC(=O)C[C@@H](/C=C/CCSC(=O)CCCCCCC)OC(=O)[C@H](C(C)C)NC1=O [Compound 1] | IC50 (HDAC1; Table 2, read-out: IC50 HDAC1, a (compounds of the present invention)): < 50 nM; IC50 (HDAC1; [23]): 41 nM; IC50 (HDAC11; [24]): 380 nM; GI50 ([2]; 72 hours, present invention, read-out: GI50 Hela, a): 20 nM; GI50 ([3]; 72 hours, present invention, read-out: GI50 U937, a): 5 nM; GI50 ([8]; 72 hours, present invention, read-out: GI50 PANC-1, a): 320 nM; GI50 ([9]; 72 hours, present invention, read-out: GI50 MCF7, a): 30 nM; GI50 ([10]; 72 hours, present invention, read-out: GI50 Du145, a): 4 nM; GI50 ([11]; 72 hours, present invention, read-out: GI50 BGC823, a): 60 nM
